Laboratory results published in paper PMC9822553 (iScience, 2023).
pIC50: −log10 of the molar value.

How the values were obtained:
Assay type in all cases: cell-based
SARS-CoV-2 variant G614 [1] = test system: SARS-CoV-2 variant G614
SARS-CoV-2 variant G614 [2] = test system: SARS-CoV-2 variant G614; remark: listed apart in the source
SARS-CoV-2 strain FFM3 = experiment: microbe, parasite or virus in culture; conditions: Severe acute respiratory syndrome coronavirus 2, read-out: IC50 concentration

| Compound | effect on SARS-CoV-2 replication and CPE formation (SARS-CoV-2 variant G614 [1]) | effect on caspase 3/7 activity (SARS-CoV-2 variant G614 [2]) | pIC50 (SARS-CoV-2 strain FFM3) |
| --- | --- | --- | --- |
| C[C@H](NC(=O)C(=O)Nc1ccccc1C(C)(C)C)C(=O)N[C@@H](CC(=O)O)C(=O)COc1c(F)c(F)cc(F)c1F [emricasan] | did not interfere with SARS-CoV-2 replication and CPE formation | suppressing caspase 3/7 activity |  |
| CCC(CC)COC(=O)[C@H](C)N[P@](=O)(OC[C@H]1O[C@@](C#N)(c2ccc3c(N)ncnn23)[C@H](O)[C@@H]1O)Oc1ccccc1 [remdesivir] |  |  | 6.30 |
